The supplement of paper PMC10307832

Legend:
Test in all cases: relative viability (nuclei count vs DMSO), 5 days (fraction); higher = more cells survive
[1] = compound: CC1=C(N=C(N=C1N)[C@H](CC(=O)N)NC[C@@H](C(=O)N)N)C(=O)N[C@@H]([C@H](C2=CN=CN2)OC3C(C(C(C(O3)CO)O)O)OC4C(C(C(C(O4)CO)O)OC(=O)N)O)C(=O)N[C@H](C)[C@H]([C@H](C)C(=O)N[C@@H]([C@@H](C)O)C(=O)NCCC5=NC(=CS5)C6=NC(=CS6)C(=O)NCCC[S+](C)C)O [Bleomycin] + Nc1ncn([C@H]2C[C@H](O)[C@@H](CO)O2)c(=O)n1 [Decitabine] (partner 2 µM); conditions: main component drawn
How it was run: (§1)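 Five library-drug doses in √10 steps were combined with a fixed anchor-drug dose, or a single drug was given alone, by pin tool to lung cancer cell lines in 1536-well plates the day after seeding. Nuclei were stained and counted after 5 days. Relative viability is the nuclei count in treated wells over that in vehicle wells, taken as the median of duplicate plates.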

[2] = compound: CC1=C(N=C(N=C1N)[C@H](CC(=O)N)NC[C@@H](C(=O)N)N)C(=O)N[C@@H]([C@H](C2=CN=CN2)OC3C(C(C(C(O3)CO)O)O)OC4C(C(C(C(O4)CO)O)OC(=O)N)O)C(=O)N[C@H](C)[C@H]([C@H](C)C(=O)N[C@@H]([C@@H](C)O)C(=O)NCCC5=NC(=CS5)C6=NC(=CS6)C(=O)NCCC[S+](C)C)O [Bleomycin] + N=C(N)NC(=N)NCCc1ccccc1 [Phenformin] (partner 250 µM); conditions: main component drawn
How it was run: as §1

[3] = compound: CC1=C(N=C(N=C1N)[C@H](CC(=O)N)NC[C@@H](C(=O)N)N)C(=O)N[C@@H]([C@H](C2=CN=CN2)OC3C(C(C(C(O3)CO)O)O)OC4C(C(C(C(O4)CO)O)OC(=O)N)O)C(=O)N[C@H](C)[C@H]([C@H](C)C(=O)N[C@@H]([C@@H](C)O)C(=O)NCCC5=NC(=CS5)C6=NC(=CS6)C(=O)NCCC[S+](C)C)O [Bleomycin] + CC(=O)Nc1cccc(-n2c(=O)n(C3CC3)c(=O)c3c(Nc4ccc(I)cc4F)n(C)c(=O)c(C)c32)c1 [Trametinib] (partner 0.02 µM); conditions: main component drawn
How it was run: as §1

[4] = compound: COc1cc([C@@H]2c3cc4c(cc3[C@@H](O[C@@H]3O[C@@H]5CO[C@@H](C)O[C@H]5[C@H](O)[C@H]3O)[C@H]3COC(=O)[C@H]23)OCO4)cc(OC)c1O [Etoposide] + CC1(C)CCC(c2ccc(Cl)cc2)=C(CN2CCN(c3ccc(C(=O)NS(=O)(=O)c4ccc(N[C@H](CCN5CCOCC5)CSc5ccccc5)c(S(=O)(=O)C(F)(F)F)c4)cc3)CC2)C1 [Navitoclax] (partner 0.5 µM)
How it was run: as §1

Cell Line | relative viability ([1]; first compound 0.01 µM) | relative viability ([1]; first compound 0.03162 µM) | relative viability ([1]; first compound 0.1 µM) | relative viability ([1]; first compound 0.3162 µM) | relative viability ([1]; first compound 1 µM) | relative viability ([2]; first compound 0.01 µM) | relative viability ([2]; first compound 0.03162 µM) | relative viability ([2]; first compound 0.1 µM) | relative viability ([2]; first compound 0.3162 µM) | relative viability ([2]; first compound 1 µM) | relative viability ([3]; first compound 0.01 µM) | relative viability ([3]; first compound 0.03162 µM) | relative viability ([3]; first compound 0.1 µM) | relative viability ([3]; first compound 0.3162 µM) | relative viability ([3]; first compound 1 µM) | relative viability ([4]; first compound 0.01 µM) | relative viability ([4]; first compound 0.03162 µM) | relative viability ([4]; first compound 0.1 µM) | relative viability ([4]; first compound 0.3162 µM) | relative viability ([4]; first compound 1 µM)
LC-2-ad | 0.72 | 0.737 | 0.541 | 0.309 | 0.292 | 0.493 | 0.536 | 0.385 | 0.283 | 0.238 | 0.736 | 0.674 | 0.541 | 0.291 | 0.243 | 0.586 | 0.446 | 0.405 | 0.276 | 0.183
CAL-12T |  |  |  |  |  | 0.474 | 0.466 | 0.297 | 0.175 | 0.163 | 0.339 | 0.326 | 0.294 | 0.174 | 0.18 | 1.13 | 1.26 | 1.17 | 0.752 | 0.791
SK-LU-1 | 0.598 | 0.631 | 0.655 | 0.554 | 0.492 | 0.46 | 0.696 | 0.5 | 0.31 | 0.209 | 0.415 | 0.487 | 0.464 | 0.43 | 0.392 | 0.633 | 0.975 | 0.468 | 0.144 | 0.166
NCI-H1650 | 0.295 | 0.253 | 0.163 | 0.184 | 0.146 | 0.293 | 0.239 | 0.206 | 0.114 | 0.149 | 0.325 | 0.257 | 0.244 | 0.138 | 0.135 | 1.25 | 1.19 | 0.885 | 0.353 | 0.309
BEN | 0.719 | 0.745 | 0.685 | 0.607 | 0.542 | 0.247 | 0.277 | 0.251 | 0.24 | 0.235 | 1.03 | 0.959 | 1.05 | 0.863 | 0.849 | 0.0656 | 0.0585 |  | 0.057 | 0.0632
ABC-1 | 0.911 | 0.837 | 1.01 | 0.803 | 0.591 | 0.241 | 0.234 | 0.258 | 0.239 | 0.199 |  |  |  |  |  |  |  |  |  | 
NCI-H1299 |  |  |  |  |  |  |  |  |  |  |  |  |  |  |  | 1.06 | 1.02 | 1.05 | 0.946 | 0.785
EBC-1 |  |  |  |  |  |  |  |  |  |  |  |  |  |  |  | 0.319 | 0.41 | 0.254 | 0.378 | 0.225
NCI-H2342 | 0.692 | 0.624 | 0.619 | 0.547 | 0.556 | 0.552 | 0.707 | 0.626 | 0.441 | 0.528 | 0.896 | 0.737 | 0.758 | 0.577 | 0.576 |  |  |  |  | 
